Where a SMILES comes first, the peptide text is derived from it.

This assay deals with Transcriptional coactivator YAP1/Transcriptional enhancer factor TEF-1 (Homo sapiens) (UniProt P46937+P28347). The assay is described as follows: Inhibition of YAP/ GST-TEAD1 (unknown origin) interaction at 50 uM by surface plasmon resonance assay. It is filed as protein assay.
Sequence of Transcriptional coactivator YAP1/Transcriptional enhancer factor TEF-1 (Homo sapiens) (P28347 whole entry, looked up): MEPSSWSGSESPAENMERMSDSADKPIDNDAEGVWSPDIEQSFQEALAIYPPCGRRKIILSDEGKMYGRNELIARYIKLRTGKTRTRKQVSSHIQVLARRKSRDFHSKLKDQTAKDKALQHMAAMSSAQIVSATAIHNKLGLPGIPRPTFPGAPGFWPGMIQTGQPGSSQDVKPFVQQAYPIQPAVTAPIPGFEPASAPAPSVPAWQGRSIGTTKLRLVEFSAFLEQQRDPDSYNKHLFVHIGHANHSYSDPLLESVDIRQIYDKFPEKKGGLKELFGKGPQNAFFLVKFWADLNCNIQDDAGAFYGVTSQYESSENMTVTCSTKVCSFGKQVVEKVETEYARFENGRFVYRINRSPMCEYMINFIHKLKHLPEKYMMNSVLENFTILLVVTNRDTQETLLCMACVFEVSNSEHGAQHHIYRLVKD
Sequence of Transcriptional coactivator YAP1/Transcriptional enhancer factor TEF-1 (Homo sapiens) (P46937 whole entry, looked up): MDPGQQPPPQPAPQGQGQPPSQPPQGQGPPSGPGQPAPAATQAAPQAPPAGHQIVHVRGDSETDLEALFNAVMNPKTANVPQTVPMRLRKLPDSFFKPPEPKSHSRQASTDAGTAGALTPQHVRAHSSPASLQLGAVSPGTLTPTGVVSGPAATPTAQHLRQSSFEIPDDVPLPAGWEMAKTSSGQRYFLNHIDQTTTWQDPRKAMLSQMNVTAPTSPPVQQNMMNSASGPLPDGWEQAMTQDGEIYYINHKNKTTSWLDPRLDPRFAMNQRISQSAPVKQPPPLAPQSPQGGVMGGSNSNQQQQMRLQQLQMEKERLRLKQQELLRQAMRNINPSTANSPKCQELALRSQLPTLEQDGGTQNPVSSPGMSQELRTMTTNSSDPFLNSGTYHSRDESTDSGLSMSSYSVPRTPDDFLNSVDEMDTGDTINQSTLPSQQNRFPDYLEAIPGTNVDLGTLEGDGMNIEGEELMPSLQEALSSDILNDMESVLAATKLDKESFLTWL
In the case of `CSCC[C@H](NC(=O)[C@@H]1CCCN1C(=O)[C@@H](NC(=O)[C@@H](NC(=O)[C@H](CCC(N)=O)NC(C)=O)[C@@H](C)O)C(C)C)C(=O)N[C@@H](CCCNC(=N)N)C(=O)N[C@@H](CC(C)C)C(=O)N[C@@H](CCCNC(=N)N)C(=O)N[C@@H](CCCCN)C(=O)N[C@@H](CC(C)C)C(=O)N1CCC[C@H]1C(=O)N[C@@H](CC(=O)O)C(=O)N[C@@H](CO)C(=O)N[C@@H](Cc1ccccc1)C(=O)N[C@@H](Cc1ccccc1)C(=O)N[C@@H](CCCCN)C(=O)N1CCC[C@H]1C(=O)N1CCC[C@H]1C(=O)N[C@@H](CCC(=O)O)C(N)=O`, the inhibition (as a rule, the drop in the measured response relative to a control, in per cent) stood at 59%.

For `CSCC[C@H](NC(=O)[C@@H]1CCCN1C(=O)[C@@H](NC(=O)[C@@H](NC(=O)[C@H](CCC(N)=O)NC(=O)[C@@H]1CCCN1C(C)=O)[C@@H](C)O)C(C)C)C(=O)N[C@@H](CCCNC(=N)N)C(=O)N[C@@H](C)C(=O)N[C@@H](CCCNC(=N)N)C(=O)N[C@@H](CCCCN)C(=O)N[C@@H](CC(C)C)C(=O)N1CCC[C@H]1C(=O)N[C@@H](CC(=O)O)C(=O)N[C@@H](CO)C(=O)N[C@@H](Cc1ccccc1)C(=O)N[C@@H](Cc1ccccc1)C(=O)N[C@@H](CCCCN)C(=O)N1CCC[C@H]1C(=O)N1CCC[C@H]1C(=O)N[C@@H](CCC(=O)O)C(N)=O` (Ac-PQTVPMRARKLPDSFFKPPE-NH2), the inhibition is 49%.

Take `CSCC[C@H](NC(=O)[C@@H]1CCCN1C(=O)[C@@H](NC(=O)[C@@H](NC(=O)[C@H](CCC(N)=O)NC(=O)[C@@H]1CCCN1C(C)=O)[C@@H](C)O)C(C)C)C(=O)N[C@@H](CCCNC(=N)N)C(=O)N[C@@H](CC(C)C)C(=O)N[C@@H](CCCNC(=N)N)C(=O)N[C@@H](CCCCN)C(=O)N[C@@H](CC(C)C)C(=O)N1CCC[C@H]1C(=O)N[C@@H](CC(=O)O)C(=O)N[C@@H](CO)C(=O)N[C@@H](Cc1ccccc1)C(=O)N[C@@H](C)C(=O)N[C@@H](CCCCN)C(=O)N1CCC[C@H]1C(=O)N1CCC[C@H]1C(=O)N[C@@H](CCC(=O)O)C(N)=O` (Ac-PQTVPMRLRKLPDSFAKPPE-NH2): the inhibition turned out to be 9.4%.

In the case of `CSCC[C@H](NC(=O)[C@@H]1CCCN1C(=O)[C@@H](NC(=O)[C@@H](NC(=O)[C@H](CCC(N)=O)NC(=O)[C@@H]1CCCN1C(C)=O)[C@@H](C)O)C(C)C)C(=O)N[C@@H](CCCNC(=N)N)C(=O)N[C@@H](CC(C)C)C(=O)N[C@@H](CCCNC(=N)N)C(=O)N[C@@H](CCCCN)C(=O)N[C@@H](CC(C)C)C(=O)N1CCC[C@H]1C(=O)N[C@@H](CC(=O)O)C(=O)N[C@@H](C)C(=O)N[C@@H](Cc1ccccc1)C(=O)N[C@@H](Cc1ccccc1)C(=O)N[C@@H](CCCCN)C(=O)N1CCC[C@H]1C(=O)N1CCC[C@H]1C(=O)N[C@@H](CCC(=O)O)C(N)=O` (Ac-PQTVPMRLRKLPDAFFKPPE-NH2), the inhibition turned out to be 1.6%.

On to `CSCC[C@H](NC(=O)[C@@H]1CCCN1C(=O)[C@@H](NC(=O)[C@@H](NC(=O)[C@H](CCC(N)=O)NC(=O)[C@@H]1CCCN1C(C)=O)[C@@H](C)O)C(C)C)C(=O)N[C@@H](CCCNC(=N)N)C(=O)N[C@@H](CC(C)C)C(=O)N[C@@H](CCCNC(=N)N)C(=O)N[C@@H](C)C(=O)N[C@@H](CC(C)C)C(=O)N1CCC[C@H]1C(=O)N[C@@H](CC(=O)O)C(=O)N[C@@H](CO)C(=O)N[C@@H](Cc1ccccc1)C(=O)N[C@@H](Cc1ccccc1)C(=O)N[C@@H](CCCCN)C(=O)N1CCC[C@H]1C(=O)N1CCC[C@H]1C(=O)N[C@@H](CCC(=O)O)C(N)=O` (Ac-PQTVPMRLRALPDSFFKPPE-NH2), for which the inhibition came out at 42%.

On to `CSCC[C@H](NC(=O)[C@H](C)NC(=O)[C@@H](NC(=O)[C@@H](NC(=O)[C@H](CCC(N)=O)NC(=O)[C@@H]1CCCN1C(C)=O)[C@@H](C)O)C(C)C)C(=O)N[C@@H](CCCNC(=N)N)C(=O)N[C@@H](CC(C)C)C(=O)N[C@@H](CCCNC(=N)N)C(=O)N[C@@H](CCCCN)C(=O)N[C@@H](CC(C)C)C(=O)N1CCC[C@H]1C(=O)N[C@@H](CC(=O)O)C(=O)N[C@@H](CO)C(=O)N[C@@H](Cc1ccccc1)C(=O)N[C@@H](Cc1ccccc1)C(=O)N[C@@H](CCCCN)C(=O)N1CCC[C@H]1C(=O)N1CCC[C@H]1C(=O)N[C@@H](CCC(=O)O)C(N)=O` (Ac-PQTVAMRLRKLPDSFFKPPE-NH2), for which the inhibition came out at 33%.

The values are drawn from ChEMBL document CHEMBL3351292, “Structure-Based Design and Synthesis of Potent Cyclic Peptides Inhibiting the YAP-TEAD Protein-Protein Interaction” (ACS Med Chem Lett, 2014).
